Laboratory results as given in article PMC10945480 (Journal of Medicinal Chemistry, 2024).

How the values were obtained:
platelet surface PDI = platelet surface PDI (Homo sapiens, UniProt P07237); experiment: Cell surface PDI reductase activity on intact human platelets (Di-E-GSSG assay); conditions: read-out: Surface PDI IC50; intact human platelets, Di-E-GSSG, 5 μM DTT
Description: (§3) In this assay, a nonfluorescent substrate, dieosin glutathione disulfide (Di-E-GSSG), was reduced into a fluorescent product eosin-glutathione (E-GSH) by platelet surface PDI in the presence of 5 μM dithiothreitol (DTT).

glioma U87 = experiment: Cell viability, resazurin assay, U87; conditions: Homo sapiens, 24 h, read-out: U87 IC50
Description: (§4) Cells were maintained in a humidified incubator at 37 °C in 5% CO2, and cell viability was determined with the resazurin assay (Cayman Chemical, USA) after the incubation with compounds for indicated concentrations and times or DMSO as control.[72]

washed human platelets [1] = experiment: Collagen-induced platelet aggregation; assay type: cell-based; conditions: Platelet; washed human platelets, collagen (5 μg/mL)
Description: (§1) The antiplatelet effects of the JUG derivatives were evaluated by measuring human platelet aggregation, which can be regulated by cell surface PDI. Platelet aggregation was induced with platelet activators U46619 (a mimetic of thromboxane A2) and collagen (binding to GPVI).
(§2) Washed human platelets were prepared from acid citrate dextrose-anticoagulated blood of healthy human volunteers as described previously.[73] The study was approved by the Institutional Review Board of Kaohsiung Medical University, and informed consent was obtained from every volunteer. Platelet aggregation was measured by using a turbidimetric aggregometer (Chrono-Log Co., USA) under stirring conditions (1200 rpm) at 37 °C. The extent of platelet aggregation was measured as the maximal increase of light transmission after the addition of the stimulators U46619 and collagen.[73] In the TCIPA assay, platelet aggregation was induced by A549 (1 × 10^4 cells/mL), MDA-MB-231 (1 × 10^2 cells/mL), or RPMI8226 (1 × 10^5 cells/mL) cancer cells in the presence of 0.375% plasma.[74]

breast cancer MDA-MB-231 = experiment: Cell viability, resazurin assay, MDA-MB-231; conditions: Homo sapiens, MDA-MB-231, 24 h, read-out: MDA-MB-231 IC50
Description: as §4

[2] = test system: human vascular endothelial EA.hy926 cells; experiment: Cell viability, resazurin assay, EA.hy926; conditions: EA.hy 926, 24 h, read-out: EAhy926 IC50
Description: as §4

lung cancer A549 = experiment: Cell viability, resazurin assay, A549; conditions: Homo sapiens, A549, 24 h, read-out: A549 IC50
Description: as §4

washed human platelets [3] = experiment: U46619-induced platelet aggregation; assay type: cell-based; conditions: Platelet; washed human platelets, U46619 (1 μM)
Description: as §1, §2

[4] = Parallel artificial membrane permeability assay (PAMPA); conditions: 50 μM, 25 ℃, 3 h, verapamil = 100%, ranitidine = 0%
Description: 1. Parallel artificial membrane permeability assay (PAMPA). […]
evolution instruments from pION Inc. In the PAMPA assay, a set of sandwich plates consists of a 96-well microtiter donor plate at the bottom and a 96-well filter acceptor plate on the top from […]
The stock solutions of samples were prepared at 10 mM concentrations in DMSO and stored at 0 ℃ before use. Before being added to a 96-well filter plate, the stock solution was diluted first with buffer to achieve a final sample concentration of 50 μM and to reduce the DMSO concentration below 1% (v/v). Each well of the 96-well donor plate was filled with a 200 μL diluted sample solution (50 μM), and the 96-well filter acceptor plate was then wetted with a 5 μL 2% w/v dioleyoylphosphatidylcholine (DOPC) in n-dodecane and subsequently placed on the donor wells.
Immediately, the acceptor wells were filled with 200 μL of buffer solution and the PAMPA plate sandwich was sealed and incubated at 25 ℃ for 3 h. After reaching the permeation time, the PAMPA plate sandwich was separated and transferred to 96-well UV plates respectively. The amounts of drugs in both the donor and acceptor compartments were measured by comparing the experimental spectra with the UV spectrum (220∼400 nm) obtained from reference standards.

[5] = biological target: purified human recombinant PDI (rPDI) (Homo sapiens, UniProt P07237); experiment: Recombinant PDI reductase activity (Di-E-GSSG assay); conditions: read-out: rPDI IC50; human recombinant PDI, Di-E-GSSG, 5 μM DTT
Sequence of purified human recombinant PDI (rPDI) (P07237 18-508): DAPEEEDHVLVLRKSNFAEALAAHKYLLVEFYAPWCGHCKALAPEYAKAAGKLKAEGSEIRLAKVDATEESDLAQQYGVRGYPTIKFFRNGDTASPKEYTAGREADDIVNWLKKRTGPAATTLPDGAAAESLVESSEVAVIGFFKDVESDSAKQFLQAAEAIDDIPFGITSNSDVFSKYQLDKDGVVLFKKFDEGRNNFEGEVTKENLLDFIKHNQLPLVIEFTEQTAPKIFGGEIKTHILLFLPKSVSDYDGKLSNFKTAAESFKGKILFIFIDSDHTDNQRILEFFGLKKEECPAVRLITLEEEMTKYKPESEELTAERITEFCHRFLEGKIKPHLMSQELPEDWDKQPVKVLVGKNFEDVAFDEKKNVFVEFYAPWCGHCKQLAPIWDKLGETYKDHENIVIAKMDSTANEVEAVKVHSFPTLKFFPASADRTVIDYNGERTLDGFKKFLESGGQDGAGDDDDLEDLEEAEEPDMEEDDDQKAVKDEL
Description: as §3

[6] = test system: multiple myeloma RPMI8226; experiment: Cell viability, resazurin assay, RPMI8226; conditions: for S.I. (EAhy926/RPMI8226), selectivity index: 24 h IC50 ratio; for IC50: Homo sapiens, RPMI-8226, 24 h, read-out: RPMI8226 IC50
Description: as §4

Sequence of platelet surface PDI (P07237 18-508): as above

Compound	IC50 (platelet surface PDI)	IC50 (glioma U87)	IC50 (washed human platelets [1])	IC50 (breast cancer MDA-MB-231)	IC50 [2]	IC50 (lung cancer A549)	IC50 (washed human platelets [3])	Permeability (%) [4]	IC50 [5]	S.I. (EAhy926/RPMI8226), selectivity index [6]	IC50 [6]
O=C1C=C(Sc2ccc(F)cc2)C(=O)c2c(O)cccc21 [Compound 15, 2-((4-Fluorophenyl)thio)-8-hydroxynaphthalene-1,4-dione]	1.67 ± 0.15 µM	17.3 ± 0.68 µM	0.83 ± 0.11 µM	10.6 ± 0.85 µM	> 20 µM	38.3 ± 2.65 µM	1.88 ± 0.18 µM	85.4%	1.16 ± 0.47 µM	>7.7	2.59 ± 0.25 µM
COc1cccc(SC2=CC(=O)c3cccc(O)c3C2=O)c1 [Compound 9, 2-((3-Methoxyphenyl)thio)-8-hydroxynaphthalene-1,4-dione]	0.84 ± 0.06 µM	8.06 ± 0.48 µM	0.38 ± 0.13 µM	5.57 ± 0.7 µM	6.89 ± 0.12 µM	13.9 ± 0.53 µM	1.6 ± 0.16 µM	38.9%	0.71 ± 0.04 µM	8.9	0.77 ± 0.05 µM
CNC(=C[N+](=O)[O-])NCCSCc1ccc(CN(C)C)o1 [Ranitidine, reference compound]	–	–	–	–	–	–	–	0%	–	–	–
CCCCCSC1=CC(=O)c2cccc(O)c2C1=O [Compound 16, 2-(Pentylthio)-8-hydroxynaphthalene-1,4-dione]	0.88 ± 0.12 µM	> 20 µM	2.57 ± 0.5 µM	10.7 ± 1.26 µM	> 20 µM	> 50 µM	7.13 ± 1.82 µM	91.9%	–	>10.6	1.88 ± 0.08 µM
COc1ccccc1SC1=CC(=O)c2cccc(O)c2C1=O [Compound 10, 2-((2-Methoxyphenyl)thio)-8-hydroxynaphthalene-1,4-dione]	0.79 ± 0.26 µM	> 20 µM	0.71 ± 0.03 µM	> 100 µM	–	17.3 ± 0.9 µM	2.66 ± 0.42 µM	28.4%	1.34 ± 0.12 µM	–	> 20 µM
O=C1C=C(Sc2ccc(O)cc2)C(=O)c2c(O)cccc21 [Compound 14, 2-((4-Hydroxyphenyl)thio)-8-hydroxynaphthalene-1,4-dione]	0.77 ± 0.2 µM	6.4 ± 0.12 µM	0.75 ± 0.14 µM	6.92 ± 1.1 µM	5.69 ± 0.16 µM	16.1 ± 0.27 µM	1.3 ± 0.35 µM	–	1.5 ± 0.25 µM	9.8	0.58 ± 0.03 µM
O=C1C=C(O)C(=O)c2c(O)cccc21 [Compound 25, 2,8-Dihydroxynaphthalene-1,4-dione]	> 20 µM	> 20 µM	> 20 µM	> 100 µM	–	> 100 µM	> 20 µM	5.21%	–	–	> 20 µM
O=C1C(O)=CC(=O)c2c(O)cccc21 [Compound 26, 3,8-Dihydroxynaphthalene-1,4-dione]	> 20 µM	> 20 µM	> 20 µM	> 100 µM	–	> 100 µM	> 20 µM	5.17%	–	–	> 20 µM
CN(C)C1=CC(=O)c2cccc(O)c2C1=O [Compound 23, 2-(Dimethylamino)-8-hydroxynaphthalene-1,4-dione]	> 20 µM	> 20 µM	> 20 µM	> 100 µM	–	> 100 µM	> 20 µM	16.7%	–	–	> 20 µM
COc1ccc(N2C(=O)/C(=C\c3ccc([N+](=O)[O-])s3)SC2=S)cc1 [CCF642, reference compound]	–	> 20 µM	–	6.42 ± 0.29 µM	5.57 ± 0.25 µM	13 ± 0.29 µM	–	–	–	0.64	8.77 ± 0.29 µM
